Results reported in PubChem BioAssay AID330 (DTP/NCI, 2004).
Where “and” joins values, the source holds several entries; their conditions need not be identical. Identical values can stand only once. Inconclusive results and toxic doses are left out. The calls were made as follows: active = survival T/C of 150% or more; inactive = T/C below 125% in these data.

System: P388 leukemia ip, CD2F1 mice, survival T/C
Experiment: NCI In Vivo Anticancer Drug Screen. Data for tumor model P388 Leukemia (intraperitoneal) in CD2F1 (CDF1) mice
Details: endpoint: median survival time, higher = longer survival
Outline: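 Mice carrying the transplanted tumor received test compound or vehicle. Survival was recorded in each group, and the value is the treated-group measurement divided by that of the vehicle-treated control group.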

[1] = dose: 50.0 mg/kg/injection, schedule: Q01DX005 (ip), vehicle: saline with Tween-80
[2] = dose: 100.0 mg/kg/injection, schedule: Q01DX005 (ip), vehicle: saline with Tween-80
[3] = dose: 200.0 mg/kg/injection, schedule: Q01DX005 (ip), vehicle: saline with Tween-80
[4] = dose: 12.5 mg/kg/injection, schedule: Q01DX009 (ip), vehicle: saline with Tween-80
[5] = dose: 25.0 mg/kg/injection, schedule: Q01DX009 (ip), vehicle: saline with Tween-80
[6] = dose: 50.0 mg/kg/injection, schedule: Q01DX009 (ip), vehicle: saline with Tween-80
[7] = dose: 100.0 mg/kg/injection, schedule: Q01DX009 (ip), vehicle: saline with Tween-80
[8] = dose: 200.0 mg/kg/injection, schedule: Q01DX009 (ip), vehicle: saline with Tween-80
[9] = dose: 400.0 mg/kg/injection, schedule: Q01DX009 (ip), vehicle: saline with Tween-80
[10] = dose: 100.0 mg/kg/injection, schedule: Q04DX003 (ip), vehicle: saline with Tween-80
[11] = dose: 200.0 mg/kg/injection, schedule: Q04DX003 (ip), vehicle: saline with Tween-80
[12] = dose: 100.0 mg/kg/injection, schedule: Q01DX001 (ip), vehicle: saline

Measured: T/C

CCOP(O)(=S)OCC.[Fe]
inactive: dose: 25.0 mg/kg/injection, schedule: Q01DX001 (ip), vehicle: saline with Tween-80 89 % of control | dose: 33.0 mg/kg/injection, schedule: Q01DX001 (ip), vehicle: saline with Tween-80 96 % of control | dose: 50.0 mg/kg/injection, schedule: Q01DX001 (ip), vehicle: saline with Tween-80 94 % of control | dose: 50.0 mg/kg/injection, schedule: Q04DX003 (ip), vehicle: saline 97 % of control | dose: 75.0 mg/kg/injection, schedule: Q01DX001 (ip), vehicle: saline with Tween-80 90 % of control and 95 % of control | dose: 100.0 mg/kg/injection, schedule: Q01DX001 (ip), vehicle: saline with Tween-80 90 % of control | dose: 100.0 mg/kg/injection, schedule: Q04DX003 (ip), vehicle: saline 101 % of control | dose: 200.0 mg/kg/injection, schedule: Q04DX003 (ip), vehicle: saline 100 % of control | dose: 400.0 mg/kg/injection, schedule: Q04DX003 (ip), vehicle: saline 90 % of control

O=C(NCCCl)Oc1cc(Cl)c(Cl)cc1Cl
inactive: dose: 12.5 mg/kg/injection, schedule: Q01DX005 (ip), vehicle: Klucel (hydroxypropylcellulose) (HPC) 120 % of control | dose: 25.0 mg/kg/injection, schedule: Q01DX005 (ip), vehicle: Klucel (hydroxypropylcellulose) (HPC) 111 % of control | dose: 100.0 mg/kg/injection, schedule: Q01DX001 (ip), vehicle: Klucel (hydroxypropylcellulose) (HPC) 102 % of control

Cc1cccc(NC(=O)C(=O)CC(=O)c2ccc([N+](=O)[O-])cc2)c1C
inactive: [1] 105 % of control | [2] 108 % of control | [3] 106 % of control

CCc1nc2ccccc2c(=O)n1C
inactive: [4] 100 % of control | [5] 100 % of control | [6] 95 % of control

CC(NS(=O)(=O)c1ccccc1)c1ccccc1 (centres undefined)
inactive: dose: 100.0 mg/kg/injection, schedule: Q04DX003 (ip), vehicle: Klucel (hydroxypropylcellulose) (HPC) 100 % of control | dose: 200.0 mg/kg/injection, schedule: Q04DX003 (ip), vehicle: Klucel (hydroxypropylcellulose) (HPC) 106 % of control | dose: 400.0 mg/kg/injection, schedule: Q04DX003 (ip), vehicle: Klucel (hydroxypropylcellulose) (HPC) 113 % of control

NC(=O)C(Cl)(Cl)Cl
inactive: [7] 100 % of control | [8] 99 % of control | [9] 99 % of control

CCOC(=O)C(NC(=O)OC(C)(C)C)C(C)C (centres undefined)
inactive: [1] 98 % of control | [2] 100 % of control | [3] 100 % of control

C=CCSc1nc2ccc(NCN3C(=O)c4ccccc4C3=O)cc2s1
inactive: dose: 50.0 mg/kg/injection, schedule: Q01DX009 (ip), vehicle: Klucel (hydroxypropylcellulose) (HPC) 96 % of control | dose: 100.0 mg/kg/injection, schedule: Q01DX009 (ip), vehicle: Klucel (hydroxypropylcellulose) (HPC) 96 % of control | dose: 200.0 mg/kg/injection, schedule: Q01DX009 (ip), vehicle: Klucel (hydroxypropylcellulose) (HPC) 98 % of control

Cc1c2c(Cc3ccccc3)nccc2c(C)c2c1c1ccccc1n2Cc1ccccc1
inactive: dose: 6.25 mg/kg/injection, schedule: Q04DX003 (ip), vehicle: distilled water + Tween-80 87 % of control | dose: 12.5 mg/kg/injection, schedule: Q04DX003 (ip), vehicle: distilled water + Tween-80 88 % of control | dose: 50.0 mg/kg/injection, schedule: Q04DX003 (ip), vehicle: distilled water + Tween-80 86 % of control

NC(=S)N/N=C/c1cc(Cl)ccc1O
inactive: [10] 99 % of control | [11] 98 % of control | dose: 400.0 mg/kg/injection, schedule: Q04DX003 (ip), vehicle: saline with Tween-80 93 % of control

Clc1ccccc1/C=C/c1ccnnc1
inactive: dose: 25.0 mg/kg/injection, schedule: Q01DX001 (ip), vehicle: saline 96 % of control | dose: 50.0 mg/kg/injection, schedule: Q01DX001 (ip), vehicle: saline 95 % of control | [12] 95 % of control | dose: 100.0 mg/kg/injection, schedule: Q01DX001 (ip), vehicle: suspension in saline 101 % of control | dose: 200.0 mg/kg/injection, schedule: Q01DX001 (ip), vehicle: suspension in saline 97 % of control | dose: 400.0 mg/kg/injection, schedule: Q01DX001 (ip), vehicle: suspension in saline 97 % of control

[N-]=[N+]=NC(=O)Nc1ccccc1F
inactive: dose: 3.75 mg/kg/injection, schedule: Q01DX005 (ip), vehicle: Klucel (hydroxypropylcellulose) (HPC) 96 % of control | dose: 7.5 mg/kg/injection, schedule: Q01DX005 (ip), vehicle: Klucel (hydroxypropylcellulose) (HPC) 90 % of control and 97 % of control | dose: 15.0 mg/kg/injection, schedule: Q01DX005 (ip), vehicle: Klucel (hydroxypropylcellulose) (HPC) 104 % of control

CC1(C)OC2C(CO)OC(n3ccc(=O)[nH]c3=O)C2O1 (centres undefined)
inactive: dose: 6.25 mg/kg/injection, schedule: Q01DX009 (ip), vehicle: saline with Tween-80 107 % of control | [4] 109 % of control | [5] 100 % of control and 110 % of control and 120 % of control | [6] 108 % of control and 92 % of control and 97 % of control | [7] 90 % of control

O=C(C1CC2CCC1C2)C1CC2CCC1C2 (centres undefined)
inactive: dose: 28.2 mg/kg/injection, schedule: Q01DX009 (ip), vehicle: saline with Tween-80 100 % of control | dose: 56.5 mg/kg/injection, schedule: Q01DX009 (ip), vehicle: saline with Tween-80 95 % of control | dose: 113.0 mg/kg/injection, schedule: Q01DX009 (ip), vehicle: saline with Tween-80 100 % of control

O=C(CO)CC(=O)CCC(=O)Nc1cccc([N+](=O)[O-])c1
inactive: dose: 60.0 mg/kg/injection, schedule: Q01DX005 (ip), vehicle: saline with Tween-80 105 % of control | dose: 120.0 mg/kg/injection, schedule: Q01DX005 (ip), vehicle: saline with Tween-80 111 % of control | dose: 240.0 mg/kg/injection, schedule: Q01DX005 (ip), vehicle: saline with Tween-80 105 % of control

O=C1c2ccccc2C(=O)N1CNc1cccc(NCN2C(=O)c3ccccc3C2=O)c1
inactive: [7] 110 % of control | [8] 95 % of control | [9] 100 % of control

CCCC(OC(C)=O)c1coc(C)c1 (centres undefined)
inactive: [12] 104 % of control | dose: 200.0 mg/kg/injection, schedule: Q01DX001 (ip), vehicle: saline 100 % of control | dose: 400.0 mg/kg/injection, schedule: Q01DX001 (ip), vehicle: saline 104 % of control

O=C(O)c1cccc([N+](=O)[O-])c1C(=O)O
inactive: dose: 25.0 mg/kg/injection, schedule: Q04DX003 (ip), vehicle: saline with Tween-80 103 % of control | dose: 50.0 mg/kg/injection, schedule: Q04DX003 (ip), vehicle: saline with Tween-80 108 % of control | [10] 103 % of control | [11] 94 % of control

Nc1ccccc1S(=O)(=O)Nc1c(N)[nH]c(=S)[nH]c1=O
inactive: dose: 60.0 mg/kg/injection, schedule: Q01DX005 (ip), vehicle: Klucel (hydroxypropylcellulose) (HPC) 105 % of control | dose: 120.0 mg/kg/injection, schedule: Q01DX005 (ip), vehicle: Klucel (hydroxypropylcellulose) (HPC) 99 % of control | dose: 240.0 mg/kg/injection, schedule: Q01DX005 (ip), vehicle: Klucel (hydroxypropylcellulose) (HPC) 113 % of control
